In patent publication EP4104902B1, “COMPOUNDS AND M[…] SAME” (priority 2020, dated 2021):
Like-named read-outs stand apart in the source and are kept apart here.

Test system: recombinant rabies virus 1088 strain expressing Gaussia Luciferase (GLuc) (1088/GLuc)
Format: cell-based

SMILES | IC50 (read-out: Anti-rabies activity) [µM] | IC50 (read-out: IC50) [µM]
NC(=O)CN1C[C@@H]2C[C@H]3CN[C@]2(C(=O)NCc2ccc(F)cc2)[C@@H]1[C@@H]3CCc1ccccc1 (relative stereo) [IB-95] | < 5 | 
CC(C)CC1C2CNC3(C(=O)NCc4ccc(O)cc4)C(C2)CN(Cc2ccc(N(C)C)cc2)C13 (stereo not shown) [IB-892] | 10 to 30 | 
N=C(N)NCCCN1C[C@@H]2C[C@H]3CN[C@]2(C(=O)NCc2ccc(F)cc2)[C@@H]1[C@@H]3Cc1ccccc1 (relative stereo) [IB-182] | 10 to 30 | 
CC(C)CCNC(=O)[C@@]12C[C@@H]3CN(CC4CCCCC4)[C@@H]([C@@H]3CN1)[C@H]2Cc1ccccc1 (relative stereo) [IF-658] | < 5 | 
O=C(NCCO)[C@]12NC[C@@H]3C[C@H]1CN(CCc1ccccc1)[C@H]2[C@@H]3Cc1cccc2ccccc12 (relative stereo) [IB-593] | 10 to 30 | 
NC(=O)CN1CC2CC3(C(=O)NCc4cccc5ccccc45)NCC2C1C3Cc1cccc2ccccc12 (stereo not shown) [IF-91] | < 5 | 
COc1ccc(CNC(=O)C23N=CC4CC2CN(CC(C)C)C3C4CCc2ccccc2)cc1 (stereo not shown) [IIB-333] | < 5 | 
Cc1ccc(CN2CC3CC4CN(C(N)=O)C3(C(=O)NCc3ccccc3)C2C4CC(C)C)cc1 (stereo not shown) [IB-888] | 10 to 30 | 
O=C(NCc1ccc(O)cc1)[C@@]12C[C@@H]3CN(Cc4ccccc4)[C@@H]([C@@H]3CN1)[C@H]2Cc1ccccc1 (relative stereo) [IF-494] | 10 to 30 | 
O=C(NCCc1ccccc1)[C@@]12C[C@@H]3CN(Cc4ccc(F)cc4)[C@@H]([C@@H]3CN1)[C@H]2Cc1ccccc1 (relative stereo) [IF-586] | 10 to 30 | 
Cc1ccc(CN2CC3CC4CN(C(=O)NCc5ccccc5)C3(C(=O)NCc3ccccc3)C2C4CC(C)C)cc1 (stereo not shown) [IB-889] | 5 to 10 | 
NC(=O)CN1C[C@@H]2C[C@H]3CN[C@]2(C(=O)NCc2cccc4ccccc24)[C@@H]1[C@@H]3Cc1ccccc1 (relative stereo) [IB-82] | 10 to 30 | 
CC(C)CCN1CC2CC3(C(=O)NCCC(=O)O)NCC2C1C3CCc1ccccc1 (stereo not shown) [IF-830] | 10 to 30 | 
Cc1cccc(CNC(=O)[C@]23NC[C@@H]4C[C@H]2CN(CC(C)C)[C@H]3[C@@H]4Cc2ccccc2)c1 (relative stereo) [IB-15] | 10 to 30 | 15.9
CC(C)CCN1C[C@H]2C[C@]3(C(=O)NCCO)NC[C@H]2[C@H]1[C@H]3Cc1cccc2ccccc12 (relative stereo) [IF-611] | 10 to 30 | 
CC(C)CNC(=O)[C@]12NC[C@@H]3C[C@H]1CN(CCc1ccccc1)[C@H]2[C@@H]3Cc1ccccc1 (relative stereo) [IB-759] | < 5 | 
CC(C)CCN1C[C@H]2C[C@]3(C(=O)NCc4ccc(F)cc4)NC[C@H]2[C@H]1[C@H]3CC(C)C (relative stereo) [IF-548] | 10 to 30 | 
CC(C)CCN1C[C@H]2C[C@]3(C(=O)NCc4ccc(O)cc4)NC[C@H]2[C@H]1[C@H]3CCc1ccccc1 (relative stereo) [IF-464] | 10 to 30 | 
COc1ccc(CN2CC3CC4(C(=O)NCc5ccccc5)N=CC3C2C4CC(C)C)cc1 (stereo not shown) [IIF-85] | 5 to 10 | 
CC(C)CCN1C[C@H]2C[C@]3(C(=O)NCc4ccc(F)cc4)N=C[C@H]2[C@H]1[C@H]3Cc1ccccc1 (relative stereo) [IIF-327] | < 5 | 
CC(C)C[C@@H]1[C@@H]2[C@@H]3CN[C@@]1(C(=O)NCCO)C[C@@H]3CN2Cc1cccc2ccccc12 (relative stereo) [IF-604] | 10 to 30 | 

SMILES | IC50 (read-out: Anti-rabies activity) [µM] | IC50 (read-out: IC50) [µM]
O=C(NCCO)[C@]12NC[C@@H]3C[C@H]1CN(Cc1cccc4ccccc14)[C@H]2[C@@H]3Cc1ccccc1 (relative stereo) [IB-588] | < 5 | 
N=C(N)NCCC[C@@H]1[C@@H]2[C@@H]3CN[C@@]1(C(=O)NCCO)C[C@@H]3CN2Cc1cccc2ccccc12 (relative stereo) [IF-239] | 10 to 30 | 
CC(C)CC[C@@H]1[C@@H]2[C@@H]3CN[C@@]1(C(=O)NCc1cccc4ccccc14)C[C@@H]3CN2CC(N)=O (relative stereo) [IF-84] | 10 to 30 | 
CC(C)CCNC(=O)[C@]12NC[C@@H]3C[C@H]1CN(CC(N)=O)[C@H]2[C@@H]3Cc1cccc2ccccc12 (relative stereo) [IB-103] | 10 to 30 | 
O=C(NCCO)[C@@]12C[C@@H]3CN(CC4CCCCC4)[C@@H]([C@@H]3CN1)[C@H]2Cc1cccc2ccccc12 (relative stereo) [IF-619] | 10 to 30 | 
CC(C)CC1C2CNC3(C(=O)NCCc4ccccc4)C(C2)CN(CC(C)C)C13 (stereo not shown) [IB-495] | < 5 | 
NC(=O)CCNC(=O)[C@@]12C[C@@H]3CN(CC4CCCCC4)[C@@H]([C@@H]3CN1)[C@H]2Cc1cccc2ccccc12 (relative stereo) [IF-536] | < 5 | 
CCCCCCNC(=O)[C@@]12C[C@@H]3CN(CC4CCCCC4)[C@@H]([C@@H]3CN1)[C@H]2Cc1ccc(O)cc1 (relative stereo) [IF-514] | < 5 | 
NC(=O)CCNC(=O)C12NCC3CC1CN(Cc1ccc(O)cc1)C2C3Cc1cccc2ccccc12 (stereo not shown) [IB-743] | < 5 | 
CC(C)CC[C@@H]1[C@@H]2CN[C@@]3(C(=O)NCCC(N)=O)[C@@H](C2)CN(CC2CCCCC2)[C@@H]13 (relative stereo) [IB-357] | 10 to 30 | 
CC(C)CCNC(=O)C12CC3CN(CCCNC(=N)N)C(C3CN1)C2Cc1cccc2ccccc12 (stereo not shown) [IF-356] | 10 to 30 | 
CC(C)CCC1C2CNC3(C(=O)NCc4ccc(F)cc4)C(C2)CN(CCC(=O)O)C13 (stereo not shown) [IB-399] | 10 to 30 | 
CC(C)CCNC(=O)[C@@]12C[C@@H]3CN(CCc4ccccc4)[C@@H]([C@@H]3CN1)[C@H]2Cc1ccccc1 (relative stereo) [IF-744] | < 5 | 
CC(C)CC1C2C3CNC1(C(=O)NCc1ccc(F)cc1)CC3CN2Cc1ccccc1 (stereo not shown) [IF-807] | < 5 | 
CC(C)NC(=O)[C@@]12C[C@@H]3CN(Cc4cccc5ccccc45)[C@@H]([C@@H]3CN1)[C@H]2CCCNC(=N)N (relative stereo) [IF-244] | < 5 | 
CC(C)CCNC(=O)[C@@]12C[C@@H]3CN(CC4CCCCC4)[C@@H]([C@@H]3CN1)[C@H]2Cc1ccc(O)cc1 (relative stereo) [IF-709] | 10 to 30 | 
CC(C)CCNC(=O)[C@]12NC[C@@H]3C[C@H]1CN(Cc1ccc(O)cc1)[C@H]2[C@@H]3Cc1ccccc1 (relative stereo) [IB-574] | 10 to 30 | 
NC(=O)CN1C[C@@H]2C[C@H]3CN[C@]2(C(=O)NCc2ccc(F)cc2)[C@@H]1[C@@H]3Cc1ccccc1 (relative stereo) [IB-92] | 10 to 30 | 
CC(C)CNC(=O)[C@]12NC[C@@H]3C[C@H]1CN(CC(C)C)[C@H]2[C@@H]3CCc1ccccc1 (relative stereo) [IB-633] | < 5 | 
NC(=O)CN1C[C@@H]2C[C@H]3CN[C@]2(C(=O)NCCc2ccccc2)[C@@H]1[C@@H]3Cc1cccc2ccccc12 (relative stereo) [IB-97] | < 5 | 
O=C(NCc1ccc(O)cc1)[C@@]12C[C@@H]3CN(Cc4ccc(F)cc4)[C@@H]([C@@H]3CN1)[C@H]2Cc1ccccc1 (relative stereo) [IF-481] | 10 to 30 | 

SMILES | IC50 (read-out: Anti-rabies activity) [µM] | IC50 (read-out: IC50) [µM]
O=C(NCCc1ccccc1)[C@@]12C[C@@H]3CN(CC4CCCCC4)[C@@H]([C@@H]3CN1)[C@H]2Cc1cccc2ccccc12 (relative stereo) [IF-718] | < 5 | 
CCCCCCNC(=O)[C@]12NC[C@@H]3C[C@H]1CN(Cc1ccccc1)[C@H]2[C@@H]3CCCNC(=N)N (relative stereo) [IB-249] | 10 to 30 | 
CC(C)CCN1C[C@@H]2C[C@H]3CN[C@]2(C(=O)NCc2ccccc2)[C@@H]1[C@@H]3Cc1ccccc1 (relative stereo) [IB-9] | 10 to 30 | 17
CC(C)CNC(=O)[C@]12NC[C@@H]3C[C@H]1CN(CCc1ccccc1)[C@H]2[C@@H]3CC(C)C (relative stereo) [IB-760] | < 5 | 
CC(C)CNC(=O)[C@@]12C[C@@H]3CN(Cc4cccc5ccccc45)[C@@H]([C@@H]3CN1)[C@H]2CCCNC(=N)N (relative stereo) [IF-235] | 10 to 30 | 
CC(C)CCN1CC2CC3CNC2(C(=O)NCc2ccccc2)C1C3CC(C)C (stereo not shown) [IB-876] | 10 to 30 | 
N=C(N)NCCCN1C[C@@H]2C[C@H]3CN[C@]2(C(=O)NCCc2ccccc2)[C@@H]1[C@@H]3Cc1cccc2ccccc12 (relative stereo) [IB-327] | 10 to 30 | 
Cc1ccc(CN2CC3CC4CN(C(=O)OCc5ccccc5)C3(C(=O)NCc3ccccc3)C2C4CC(C)C)cc1 (stereo not shown) [IB-887] | 5 to 10 | 
CC(C)NC(=O)[C@@]12C[C@@H]3CN(Cc4ccc(O)cc4)[C@@H]([C@@H]3CN1)[C@H]2Cc1cccc2ccccc12 (relative stereo) [IF-504] | 10 to 30 | 
O=C(NCc1ccc(F)cc1)[C@@]12C[C@@H]3CN(Cc4ccccc4)[C@@H]([C@@H]3CN1)[C@H]2Cc1ccccc1 (relative stereo) [IF-561] | < 5 | 
CC(C)CCC1C2CNC3(C(=O)NCc4ccc(O)cc4)C(C2)CN(CCC(=O)O)C13 (stereo not shown) [IB-402] | 10 to 30 | 
CC(C)CC1C2CNC3(C(=O)NCc4cccc(O)c4)C(C2)CN(Cc2ccc(N(C)C)cc2)C13 (stereo not shown) [IB-891] | 10 to 30 | 
O=C(NCCc1ccccc1)C12NCC3CC1CN(CC1CCCCC1)C2C3Cc1ccccc1 (stereo not shown) [IB-484] | < 5 | 
N=C(N)NCCC[C@@H]1[C@@H]2CN[C@@]3(C(=O)NCCc4ccccc4)[C@@H](C2)CN(Cc2ccccc2)[C@@H]13 (relative stereo) [IB-247] | 10 to 30 | 
O=C(NCc1ccc(O)cc1)[C@@]12C[C@@H]3CN(CCc4ccccc4)[C@@H]([C@@H]3CN1)[C@H]2Cc1ccccc1 (relative stereo) [IF-469] | 10 to 30 | 
CC(C)CN1C[C@H]2C[C@]3(C(=O)NCCc4ccccc4)NC[C@H]2[C@H]1[C@H]3Cc1ccc(O)cc1 (relative stereo) [IF-567] | 10 to 30 | 
N=C(N)NCCCNC(=O)[C@]12NC[C@@H]3C[C@H]1CN(Cc1cccc4ccccc14)[C@H]2[C@@H]3Cc1ccccc1 (relative stereo) [IB-351] | 10 to 30 | 
CC(C)C[C@@H]1[C@@H]2CN[C@@]3(C(=O)NCc4ccc(O)cc4)[C@@H](C2)CN(CC2CCCCC2)[C@@H]13 (relative stereo) [IB-581] | 10 to 30 | 
O=C(NCc1ccc(F)cc1)[C@@]12C[C@@H]3CN(CCO)[C@@H]([C@@H]3CN1)[C@H]2CCc1ccccc1 (relative stereo) [IF-516] | < 5 | 
CC(C)C[C@@H]1[C@@H]2[C@@H]3CN[C@@]1(C(=O)NCc1ccc(O)cc1)C[C@@H]3CN2CCc1ccccc1 (relative stereo) [IF-470] | 10 to 30 | 
